Experimental data reported in US11667651B2, “Aminopyridine derivatives as phosphatidylinositol phosphate kinase inhibitors” (HiberCell, Inc., priority 2017, dated 2023).

Biological target: T1, PIP4K2A (Homo sapiens, UniProt P48426)
T1 sequence (P48426 1-406): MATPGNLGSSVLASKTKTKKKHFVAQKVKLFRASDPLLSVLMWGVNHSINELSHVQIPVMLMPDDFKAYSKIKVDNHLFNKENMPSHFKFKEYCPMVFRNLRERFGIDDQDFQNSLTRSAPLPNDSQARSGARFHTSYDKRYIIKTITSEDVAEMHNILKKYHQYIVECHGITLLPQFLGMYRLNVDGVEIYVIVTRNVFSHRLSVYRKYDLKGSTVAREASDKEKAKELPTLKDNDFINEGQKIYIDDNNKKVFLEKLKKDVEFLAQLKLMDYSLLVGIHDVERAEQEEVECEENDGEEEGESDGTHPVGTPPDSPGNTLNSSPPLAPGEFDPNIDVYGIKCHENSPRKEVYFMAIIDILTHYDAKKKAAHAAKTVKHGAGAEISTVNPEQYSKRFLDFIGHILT
Assay: Kinase Assay PIP4K2 A (Table 2)
Assay type: biochemical
Design: 4 nM PIP4K2A (full length protein, SignalChem); purchased SignalChem
Conditions: compounds listed under IC50 bins
Experimental: Dilution series of the compounds were prepared in DMSO at 100 times the final assay concentration (n1=n0/3 in 10 points). The compounds were further diluted to three times the assay concentration in assay buffer (20 mM MOPS pH 7.2, 25 mM magnesium chloride, 0.005% Tween 20). 6 μL of the diluted compounds were added to a 384 well assay plate followed by 9 μL of a mix consisting of 4 nM PIP4K2A (full length protein, SignalChem) and 100 μM PI(5)P diC8 (Tebu-Bio). Enzyme and compounds were pre-incubated at room temperature for 15 minutes.
Then 3 μL of a solution containing 60 μM ATP (Promega) in assay buffer was added to the wells containing compound and enzyme and mixing was performed by pipetting several times. The reaction was incubated at room temperature for 1 h. Then 18 μL of ADP-Glo™ Reagent (Promega) was added to stop the kinase reaction and deplete the unconsumed ATP, mixing was performed by pipetting several times. The plate was incubated at room temperature for 40 minutes before addition of 36 μL of Kinase Detection Reagent (Promega) to convert ADP to ATP and introduce luciferase and luciferin to detect ATP. The reaction was incubated at room temperature for 40 minutes before the luminescence was measured in a in a Victor 3V 1420 multilabel counter (Perkin Elmer).
Percent inhibition of the compounds as compared to dimethyl sulfoxide treated control samples was calculated. Compound concentration versus percent inhibition were fitted to generate IC50 values.

IC50 [nM] | SMILES
100 to 1000 | CN(C)C(=O)c1ccc(-c2ccc(Nc3cccnc3)nc2)cc1 [Example 1, N,N-dimethyl-4-(6-(pyridin-3-ylamino)pyridin-3-yl)benzamide]
> 1000 | Cc1cc(C(=O)N(C)C)ccc1-c1ccc(Nc2cccnc2)nc1 [Example 2, N,N,3-trimethyl-4-(6-(pyridin-3-ylamino)pyridin-3-yl)benzamide]
> 1000 | CN(C)C(=O)c1ccc(-c2ccc(Nc3cccnc3)nc2)cn1 [Example 3, N,N-dimethyl-6′-(pyridin-3-ylamino)-[3,3′-bipyridine]-6-carboxamide]
> 1000 | CN(C)C(=O)C#Cc1ccc(Nc2cccnc2)nc1 [Example 4, N,N-dimethyl-3-(6-(pyridin-3-ylamino)pyridin-3-yl)propiolamide]
> 1000 | CN(C)C(=O)c1ccc(-c2ccc(Nc3cccnc3)nc2)s1 [Example 5, N,N-dimethyl-5-(6-(pyridin-3-ylamino)pyridin-3-yl)thiophene-2-carboxamide]
> 1000 | CN(C)C(=O)C1CC=C(c2ccc(Nc3cccnc3)nc2)CC1 (stereo not shown) [Example 6, N,N-dimethyl-4-(6-(pyridin-3-ylamino)pyridin-3-yl)cyclohex-3-ene-1-carboxamide]
> 1000 | CN(C)C(=O)[C@H]1CC[C@H](c2ccc(Nc3cccnc3)nc2)CC1 [Example 7, (r,4r)-N,N-dimethyl-4-(6-(pyridin-3-ylamino)pyridin-3-yl)cyclohexane-1-carboxamide]
> 1000 | CN(C)C(=O)[C@H]1CC[C@@H](c2ccc(Nc3cccnc3)nc2)CC1 [Example 8, (1s,4s)-N,N-dimethyl-4-(6-(pyridin-3-ylamino)pyridin-3-yl)cyclohexane-1-carboxamide]
> 1000 | CN(C)C(=O)c1ccc(-c2ccc(Nc3cccnc3)nc2)nc1 [Example 9, N,N-dimethyl-6′-(pyridin-3-ylamino)-[2,3′-bipyridine]-5-carboxamide]
> 1000 | Cc1cc(-c2ccc(Nc3cccnc3)nc2)ccc1C(=O)N(C)C [Example 10, N,N,2-trimethyl-4-(6-(pyridin-3-ylamino)pyridin-3-yl)benzamide]
10 to 100 | O=C(c1ccc(-c2ccc(Nc3cccnc3)nc2)cc1)N1CCC1 [Example 11, azetidin-1-yl(4-(6-(pyridin-3-ylamino)pyridin-3-yl)phenyl)methanone]
10 to 100 | CN(C)C(=O)c1ccc(-c2ccc(Nc3cncc(N4CCCC4=O)c3)nc2)cc1F [Example 12, 2-fluoro-N,N-dimethyl-4-(6-((5-(2-oxopyrrolidin-1-yl)pyridin-3-yl)amino)pyridin-3-yl)benzamide]
10 to 100 | CN(C)C(=O)c1ccc(-c2ccc(Nc3cncc(N4CCCC4=O)c3)nc2)c(F)c1 [Example 13, 3-fluoro-N,N-dimethyl-4-(6-((5-(2-oxopyrrolidin-1-yl)pyridin-3-yl)amino)pyridin-3-yl)benzamide]
100 to 1000 | CN(C)C(=O)c1cc(F)c(-c2ccc(Nc3cncc(N4CCCC4=O)c3)nc2)cc1F [Example 14, 2,5-difluoro-N,N-dimethyl-4-(6-((5-(2-oxopyrrolidin-1-yl)pyridin-3-yl)amino)pyridin-3-yl)benzamide]
100 to 1000 | Cc1cc(Nc2cccnc2)ncc1-c1ccc(C(=O)N(C)C)cc1 [Example 16, N,N-dimethyl-4-(4-methyl-6-(pyridin-3-ylamino)pyridin-3-yl)benzamide]
100 to 1000 | CCc1cc(Nc2cccnc2)ncc1-c1ccc(C(=O)N(C)C)cc1 [Example 17, 4-(4-ethyl-6-(pyridin-3-ylamino)pyridin-3-yl)-N,N-dimethylbenzamide]

IC50 [nM] | SMILES
100 to 1000 | CN(C)C(=O)c1ccc(-c2cnc(Nc3cccnc3)cn2)cc1 [Example 18, N,N-dimethyl-4-(5-(pyridin-3-ylamino)pyrazin-2-yl)benzamide]
100 to 1000 | CN(C)C(=O)c1ccc(-c2cnc(Nc3cncc(N4CCCC4=O)c3)cn2)cc1 [Example 19, N,N-dimethyl-4-(5-((5-(2-oxopyrrolidin-1-yl)pyridin-3-yl)amino)pyrazin-2-yl)benzamide]
100 to 1000 | CN(C)C(=O)c1ccc(-c2cnc(Nc3cncc(N4CCCC4=O)c3)cn2)cc1F [Example 20, 2-fluoro-N,N-dimethyl-4-(5-((5-(2-oxopyrrolidin-1-yl)pyridin-3-yl)amino)pyrazin-2-yl)benzamide]
100 to 1000 | CN(C)C(=O)c1ccc(-c2cnc(Nc3cncc(N4CCCC4=O)c3)cn2)c(F)c1 [Example 21, 3-fluoro-N,N-dimethyl-4-(5-((5-(2-oxopyrrolidin-1-yl)pyridin-3-yl)amino)pyrazin-2-yl)benzamide]
> 1000 | CN(C)C(=O)c1cc(F)c(-c2cnc(Nc3cncc(N4CCCC4=O)c3)cn2)cc1F [Example 22, 2,5-difluoro-N,N-dimethyl-4-(5-((5-(2-oxopyrrolidin-1-yl)pyridin-3-yl)amino)pyrazin-2-yl)benzamide]
1 to 10 | CN(C)C(=O)c1ccc(-c2cnc(Nc3cncc(N4CCN(Cc5ccccc5)C4=O)c3)cn2)cc1 [Example 23, 4-(5-((5-(3-benzyl-2-oxoimidazolidin-1-yl)pyridin-3-yl)amino)pyrazin-2-yl)-N,N-dimethylbenzamide]
10 to 100 | CN(C)C(=O)c1ccc(-c2ccc(Nc3cncc(N(C)S(C)(=O)=O)c3)nc2)cc1 [Example 24, N,N-dimethyl-4-(6-((5-(N-methylmethylsulfonamido)pyridin-3-yl)amino)pyridin-3-yl)benzamide]
10 to 100 | CN(C)C(=O)c1ccc(-c2ccc(Nc3cncc(N(C)S(=O)(=O)C4CC4)c3)nc2)cc1 [Example 25, N,N-dimethyl-4-(6-((5-(N-methylcyclopropanesulfonamido)pyridin-3-yl)amino)pyridin-3-yl)benzamide]
10 to 100 | CC(C)S(=O)(=O)N(C)c1cncc(Nc2ccc(-c3ccc(C(=O)N(C)C)cc3)cn2)c1 [Example 26, N,N-dimethyl-4-(6-((5-(N-methylpropan-2-ylsulfonamido)pyridin-3-yl)amino)pyridin-3-yl)benzamide]
100 to 1000 | CC(C)N(c1cncc(Nc2ccc(-c3ccc(C(=O)N(C)C)cc3)cn2)c1)S(C)(=O)=O [Example 27, 4-(6-((5-(N-isopropylmethylsulfonamido)pyridin-3-yl)amino)pyridin-3-yl)-N,N-dimethylbenzamide]
10 to 100 | CN(C)C(=O)c1ccc(-c2ccc(Nc3cncc(N(C4CC4)S(C)(=O)=O)c3)nc2)cc1 [Example 28, 4-(6-((5-(N-cyclopropylmethylsulfonamido)pyridin-3-yl)amino)pyridin-3-yl)-N,N-dimethylbenzamide]
100 to 1000 | CN(C)C(=O)c1ccc(-c2ccc(Nc3cncc(C#N)c3)nc2)cc1 [Example 30, 4-(6-((5-cyanopyridin-3-yl)amino)pyridin-3-yl)-N,N-dimethylbenzamide]
10 to 100 | CC(=O)Nc1cncc(Nc2ccc(-c3ccc(C(=O)N(C)C)cc3)cn2)c1 [Example 31, 4-(6-((5-acetamidopyridin-3-yl)amino)pyridin-3-yl)-N,N-dimethylbenzamide]
100 to 1000 | CN(C)C(=O)c1ccc(-c2ccc(Nc3cncnc3)nc2)cc1 [Example 32, N,N-dimethyl-4-(6-(pyrimidin-5-ylamino)pyridin-3-yl)benzamide]
> 1000 | Cc1ncc(Nc2ccc(-c3ccc(C(=O)N(C)C)cc3)cn2)cn1 [Example 33, N,N-dimethyl-4-(6-((2-methylpyrimidin-5-yl)amino)pyridin-3-yl)benzamide]
